Measurements: patent US20110087015A1, “Nucleoside and nucleotide having an unnatural base and use thereof” (priority 2003, published 2011)
“Also recorded” adds a separate entry of the source. Where two headings read alike, the source gives them in different places.

Experiments:
[1] = target: T1, Klenow fragment (KF exo−), DNA polymerase I lacking 3′→5′ exonuclease activity (Escherichia coli, UniProt P00582, D355A/E357A); assay: Klenow fragment-mediated single nucleotide insertion experiment (replication); assay type: biochemical, E. coli
T1 construct: Large fragment of DNA polymerase Exonuclease-free Klenow enzyme (Cloned) (Amersham USB); purchased Amersham USB
Text: In this example, E. coli-derived DNA polymerase I lacking 3′→5′ exonuclease activity, i.e., Klenow fragment (KF exo^−) was used to make a comparison of the efficiency for single nucleotide incorporation during replication (i.e., incorporation of 2-oxo-(1H)pyridine (y) into DNA) between v-y base pair (the present invention) and s-y base pair (control).
More specifically, Large fragment of DNA polymerase Exonuclease-free Klenow enzyme (Cloned) (Amersham USB) and 10× reaction buffer attached thereto (500 mM Tris-HCl pH 7.5, 100 mM MgCl2, 10 mM DTT, 0.5 mg/ml BSA) were used. The enzyme concentration of KF exo^− was determined using a Bio-Rad Protein Assay kit (BioRad) for each lot purchased.
The primer for use in the reaction was pre-labeled at its 5′-end using T4 polynucleotide kinase (TaKaRa) and […], and then purified by gel electrophoresis.
Reaction conditions: a mixed solution of template DNA (20 μM, 1 μl), the primer whose 5′-end was labeled with ^32P (5 μM, 4 μl) and 10× reaction buffer (1 μl) was heated at 95° C. for 3 minutes and then annealed by quenching to form a duplex between the template DNA and the primer. A Klenow fragment solution (1 μM) diluted with enzyme dilution buffer (50 mM phosphate buffer pH 7, 50% glycerol, 1 mM DTT) was added in a volume of 2 μl and incubated at 37° C. for 2 minutes, followed by addition of 2 μl dNTP solution (any one of A, G, C, T or y shown in FIG. 8) (100 μM) to start the reaction. After incubation at 37° C. for 2 minutes, 10 μl of a 10 M urea-containing TBE solution was added and heated at 75° C. for 3 minutes to stop the reaction. The reaction conditions are summarized as follows: template/primer 2 μM; KF exo^− 200 nM; dNTP 20 μM; reaction at 37° C. for 2 minutes.
Aliquot parts of the reaction solutions were electrophoresed on a 20% polyacrylamide-7 M urea gel and the reaction products were analyzed with a bioimaging analyzer (BAS2500, Fuji Photo Film Co., Ltd., Japan).

[2] = target: T2, Klenow fragment (KF exo−) (Escherichia coli, UniProt P00582, D355A/E357A); assay type: biochemical, E. coli; details: for efficiency (Vmax/Km) / Vmax / Km: template base N = label; for Vmax: normalized to enzyme concentration 20 nM
T2 construct: Large fragment of DNA polymerase Exonuclease-free Klenow enzyme (Cloned) (Amersham USB); purchased Amersham USB
Text: This example was intended to analyze reaction rate constants in the same Klenow fragment-mediated single nucleotide insertion reaction as shown in Example 2.
More specifically, the reaction primer used was a primer whose 5′-end was fluorescently labeled with 6-FAM (SEQ ID NO: 1, FIG. 10). The primer whose 5′-end was fluorescently labeled was purchased from Applied Biosystems among those commercially available as custom fluorescent primers for GeneScan, and purified by gel electrophoresis. The analysis of reaction products was performed with a DNA sequencer (Applied Biosystems; model ABI377).
Reaction conditions: Template DNA (SEQ ID NO: 2 or 3) (10 μM) and the fluorescently-labeled primer (10 μM), each of which had been dissolved in 2× reaction buffer (100 mM Tris-HCl pH 7.5, 20 mM MgCl2, 2 mM DTT, 100 μg/ml BSA), were heated at 95° C. for 3 minutes and then annealed by quenching to form a duplex between the template and the primer. After this duplex DNA solution was dispensed in 5 μl aliquots, a KF exo^− solution (15-250 nM) diluted with enzyme dilution buffer was added in a volume of 2 μl, followed by incubation at 37° C. for 2 minutes to form a DNA-enzyme complex. The resulting solution was supplemented with 3 μl dNTP solution (any one of A, G, C, T or y) (100 μM-7 mM) and enzymatically reacted at 37° C. (1.5-20 minutes). The reaction was stopped by adding 10 μl of a 95% formamide solution containing 20 mM EDTA (stop solution) and heating at 75° C. for 3 minutes.
The reaction conditions are summarized as follows: 5 μM template-primer duplex, 3-50 nM enzyme and 30-2100 μM dNTP are used in a solution (10 μl). The solution (10 μl) contains 50 mM Tris-HCl (pH 7.5), 10 mM MgCl2, 1 mM DTT and 0.05 mg/ml BSA. The reaction is performed at 37° C. for 1.5-20 minutes.
After aliquot parts of the reaction solutions were diluted 50-fold with the stop solution, the thus diluted reaction solutions (0.5 μl) were each mixed with 3 μl loading solution (deionized formamide:50 mg/mL blue dextran solution containing 25 mM EDTA=5:1), heated at 90° C. for 2 minutes and then quenched on ice. Aliquots (about 0.5 μl) of the resulting solutions were loaded on every other lane of a sequence gel and electrophoresed. The sequence gel (36 cm WTR) has the following composition: 6 M urea, 8% polyacrylamide (acrylamide:bisacrylamide=19:1), and 0.5×TBE. The electrophoresis buffer used was 0.5×TBE. The run module used was GS Run 36C-2400. The electrophoresis time was set to about 1 hour, and peak patterns of the reaction products were analyzed and quantified using GeneScan Software (Version 3.0).
Using the peak heights of the unreacted primer fragment and single nucleotide-inserted DNA fragments, the percentage of each primer elongated by a single nucleotide was determined to calculate enzymological parameters Km and Vmax from Hanes-Woolf plots (Goodman, M. F., Creighton, S., Bloom, L. B., Petruska, J. Crit. Rev. Biochem. Mol. Biol., 28, 83-126 (1993)).

[3] = target: T3, Klenow fragment (Large Fragment E. coli DNA Polymerase I) (Escherichia coli, UniProt P00582); assay: Klenow fragment-mediated elongation reaction (replication); assay type: biochemical; details: substrates A; for replication with two adjacent unnatural bases in template (35-mer product): G, y, NN=vv or NN=ss
T3 construct: purchased TaKaRa
Text: This example was intended to study selective introduction of y at a site corresponding to v in the complementary DNA strand during Klenow fragment-mediated elongation reaction, rather than single-base incorporation. The reaction primer DNA and template DNA used are shown below.
As in the case of Example 2, the primer was pre-labeled at its 5′-end using […] and then purified by gel electrophoresis. In Experiments 2 and 3, the base y is incorporated as the first base of elongation from the primer. In contrast, in this experiment, v in the template is located at a position corresponding to the severalth base elongated from the primer, and it is therefore possible to study the introduction of y at a site corresponding to v in the complementary DNA strand during elongation reaction.
The template DNA (400 nM) and the primer whose 5′-end was labeled with ^32P (FIG. 11) (400 nM), each of which had been dissolved in 2× reaction buffer (20 mM Tris-HCl pH 7.5, 14 mM MgCl2, 0.2 mM DTT), were heated at 95° C. for 3 minutes and then annealed by quenching to form a duplex. After this duplex DNA solution was dispensed in 5 μl aliquots, 2 μl of a dNTP solution (a combination shown in each lane of FIG. 12 or 13) (50 μM) and 3 μl (0.15 units) of Klenow fragment (KF exo^+; Cloned Klenow Fragment for sequencing (Large Fragment E. coli DNA Polymerase I), purchased from TaKaRa) diluted with water were added to start the enzymatic reaction at 37° C. After incubation for 3 minutes, the enzymatic reaction was stopped by adding 10 μl of a 10 M urea-containing TBE solution and heating at 75° C. for 3 minutes. The reaction conditions are summarized as follows: template/primer 200 nM; KF […] 0.015U/μl; dNTPs 10 μM; reaction at 37° C. for 3 minutes.
Aliquot parts of the reaction solutions were electrophoresed on a 15% polyacrylamide-7 M urea gel and the reaction products were analyzed with a bioimaging analyzer (BAS2500, Fuji Photo Film Co., Ltd., Japan). […]

T7 RNA polymerase = target: T4, T7 RNA polymerase (Escherichia phage T7, UniProt P00573); assay: Site-selective introduction of ryTP into RNA through transcription; assay type: biochemical; details: for incorporation efficiency of the substrate y into RNA (transcription efficiency): one unnatural base in template (vT or sT), compared to natural base pairing (AT); for transcription efficiency, two y substrates incorporated into RNA: two adjacent unnatural bases in template (NN=vv or NN=ss)
T4 construct: purchased TAKARA SHUZO CO., LTD (TaKaRa)
Method: This example was intended to study site-selective introduction of ryTP into RNA through transcription reaction. […] The DNA primer required for the transcription reaction had the following sequence.
A template and T7prim21 were mixed in 10 mM Tris-HCl (pH 7.6) containing 10 mM NaCl and annealed into a double-stranded form for use in the transcription reaction (FIG. 14). The T7 transcription reaction was performed on 20 μl scale using an enzyme from TAKARA SHUZO CO., LTD [T. Ohtsuki et al., Proc. Natl. Acad. Sci. USA, 98, 4922-4925 (2001)]. More specifically, the transcription reaction was accomplished by incubation at 37° C. for 3 hours in a reaction solution containing 40 mM Tris-HCl pH 8.0, 5 mM DTT, 24 mM MgCl2, 2 mM spermidine, 0.01% TritonX-100, 10 mM GMP, 1 mM NTPs (N=G, C, U, with or without ryTP, as shown in FIGS. 15 and 16), 2 μCi [α-^32P]ATP, 2 μM double-stranded DNA (template and T7prim21), and 2.5 U/μl T7 RNA polymerase (TaKaRa). If the transcription reaction proceeds completely, an RNA product having the following full-length sequence can be obtained.
The reaction solutions were each supplemented with an equal volume of a 10 M urea-containing BPBdye solution and heated at 75° C. for 3 minutes to stop the reaction, followed by electrophoresis on a 20% polyacrylamide-7 M urea gel to confirm products of the transcription reaction. The [α-^32P]ATP-labeled reaction products were analyzed with a bioimaging analyzer (BAS2500, Fuji Photo Film Co., Ltd., Japan). The incorporation efficiency of the substrate y into RNA when using the sT-containing template in transcription with T7 RNA polymerase (FIG. 14) was about 50% to 60%, as compared to natural base pairing (AT). In contrast, when using the vT-containing template, the incorporation efficiency of the substrate y was 96%, which was as high as that of natural base pairing (FIG. 15).

[4] = template/primer 2 μM, KF exo− 200 nM, dNTP 20 μM, 37° C., 2 minutes

T3 sequence (P00582 324-928): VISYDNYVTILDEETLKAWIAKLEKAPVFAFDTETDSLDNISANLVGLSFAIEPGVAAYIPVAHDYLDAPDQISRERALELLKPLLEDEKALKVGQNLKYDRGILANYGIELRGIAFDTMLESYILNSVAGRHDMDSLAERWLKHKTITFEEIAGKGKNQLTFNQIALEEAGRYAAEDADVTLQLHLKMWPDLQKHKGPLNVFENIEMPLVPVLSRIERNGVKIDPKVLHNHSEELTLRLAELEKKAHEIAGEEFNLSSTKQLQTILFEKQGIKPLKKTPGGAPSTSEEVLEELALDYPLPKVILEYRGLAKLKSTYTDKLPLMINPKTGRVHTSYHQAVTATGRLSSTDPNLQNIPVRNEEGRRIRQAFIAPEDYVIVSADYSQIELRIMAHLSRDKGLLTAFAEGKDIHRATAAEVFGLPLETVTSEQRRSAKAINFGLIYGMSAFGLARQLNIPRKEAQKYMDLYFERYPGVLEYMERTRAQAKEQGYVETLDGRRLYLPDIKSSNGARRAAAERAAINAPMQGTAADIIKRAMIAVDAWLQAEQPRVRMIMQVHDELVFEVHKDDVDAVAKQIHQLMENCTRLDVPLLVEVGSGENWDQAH
T4 sequence (P00573 whole entry): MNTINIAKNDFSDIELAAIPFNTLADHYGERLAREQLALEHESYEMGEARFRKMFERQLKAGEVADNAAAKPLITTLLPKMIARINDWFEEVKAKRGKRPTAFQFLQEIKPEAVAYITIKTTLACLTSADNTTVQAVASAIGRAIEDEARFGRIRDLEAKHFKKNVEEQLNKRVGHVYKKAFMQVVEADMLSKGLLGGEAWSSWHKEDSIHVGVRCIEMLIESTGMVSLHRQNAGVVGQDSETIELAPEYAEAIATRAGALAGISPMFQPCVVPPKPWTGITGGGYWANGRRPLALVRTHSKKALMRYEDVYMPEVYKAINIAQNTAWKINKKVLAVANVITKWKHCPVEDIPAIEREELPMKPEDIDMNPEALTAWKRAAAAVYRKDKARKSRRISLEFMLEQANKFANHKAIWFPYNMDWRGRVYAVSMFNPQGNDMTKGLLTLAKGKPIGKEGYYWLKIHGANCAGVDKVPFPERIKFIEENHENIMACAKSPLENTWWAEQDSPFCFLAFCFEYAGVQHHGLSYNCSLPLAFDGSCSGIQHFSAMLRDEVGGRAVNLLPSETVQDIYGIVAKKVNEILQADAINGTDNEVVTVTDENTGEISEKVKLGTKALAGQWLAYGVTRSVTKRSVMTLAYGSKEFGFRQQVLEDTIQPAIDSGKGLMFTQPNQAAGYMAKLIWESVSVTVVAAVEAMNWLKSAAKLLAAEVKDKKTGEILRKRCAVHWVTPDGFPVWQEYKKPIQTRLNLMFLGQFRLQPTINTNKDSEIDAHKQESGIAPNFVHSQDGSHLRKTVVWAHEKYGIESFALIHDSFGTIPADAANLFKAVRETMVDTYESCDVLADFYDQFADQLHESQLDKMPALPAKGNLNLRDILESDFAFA
T2 sequence (P00582 324-928 D355A/E357A): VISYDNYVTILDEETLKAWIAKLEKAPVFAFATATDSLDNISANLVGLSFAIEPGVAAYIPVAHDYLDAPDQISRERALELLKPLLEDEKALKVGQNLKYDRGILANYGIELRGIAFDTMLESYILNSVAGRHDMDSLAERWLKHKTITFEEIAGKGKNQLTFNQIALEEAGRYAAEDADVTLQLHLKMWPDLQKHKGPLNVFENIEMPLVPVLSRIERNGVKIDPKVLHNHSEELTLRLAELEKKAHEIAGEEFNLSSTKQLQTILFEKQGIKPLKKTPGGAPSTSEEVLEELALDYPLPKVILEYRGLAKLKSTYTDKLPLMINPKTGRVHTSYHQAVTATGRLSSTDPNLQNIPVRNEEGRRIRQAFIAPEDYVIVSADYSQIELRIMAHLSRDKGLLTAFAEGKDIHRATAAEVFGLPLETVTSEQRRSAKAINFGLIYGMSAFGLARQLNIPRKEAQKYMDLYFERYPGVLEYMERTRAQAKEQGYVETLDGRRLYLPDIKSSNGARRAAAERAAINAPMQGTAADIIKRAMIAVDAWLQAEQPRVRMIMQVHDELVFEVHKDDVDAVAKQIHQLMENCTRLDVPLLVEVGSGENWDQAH
T1 sequence (P00582 324-928 D355A/E357A): as above

SMILES | efficiency (Vmax/Km) ([2]; N′ = A) | Vmax ([2]; N′ = A, SD in parentheses) | efficiency (Vmax/Km) ([2]; N′ = C) | Vmax ([2]; N′ = C, SD in parentheses) | efficiency (Vmax/Km) ([2]; N′ = T) | Vmax ([2]; N′ = T, SD in parentheses) | efficiency (Vmax/Km) ([2]; N′ = y) | Vmax ([2]; N′ = y, SD in parentheses) | replication with two adjacent unnatural bases in template (35-mer product) [3] | incorporation efficiency of the substrate y into RNA (transcription efficiency) (T7 RNA polymerase) | transcription efficiency, two y substrates incorporated into RNA (T7 RNA polymerase) | other results
Nc1nc(-c2nccs2)c2[nH]cnc2n1 [v, 2-amino-6-(2-thiazolyl)purine] | 3.3 × 10^3 % min^−1M^−1 | 0.36(0.08) % min^−1 | 4.1×10^4 % min^−1M^−1 | 22(5) % min^−1 | 5.1×10^3 % min^−1M^−1 | 2.0(0.7) % min^−1 | 1.4×10^5 % min^−1M^−1 | 40(21) % min^−1 | allows replication to proceed | 96% | about 30% | incorporation selectivity opposite y ([1]; compared with s): comparable to the selectivity of s; incorporation of C opposite the template base [1, 4]: also incorporated although in a small amount; incorporation of y at the site corresponding to the template base [1, 4]: selectively incorporated; incorporation efficiency of y opposite v relative to y opposite s ([2]; ratio of Vmax/Km): about 4 fold; incorporation efficiency of y opposite v relative to C incorporation ([2]; selectivity, ratio of Vmax/Km): about 3 fold; incorporation efficiency of y opposite v relative to T incorporation ([2]; selectivity, ratio of Vmax/Km): ≥ 20 fold; replication efficiency in elongation reaction (35-mer band intensity) ([3]; G and y, one unnatural base in template (NN=vT vs NN=sT)): higher replication efficiency than the s-y base pair
Nc1nc(-c2cccs2)c2[nH]cnc2n1 [s, 2-amino-6-thienylpurine, reference compound] | 3.0 × 10^3 % min^−1M^−1 | 0.26(0.06) % min^−1 | 2.5 × 10^4 % min^−1M^−1 | 15(5) % min^−1 | 9.4 × 10^3 % min^−1M^−1 | 3.0(0.3) % min^−1 | 3.6×10^4 % min^−1M^−1 | 9.4(2.5) % min^−1 | little 35-mer product was obtained; also recorded: little incorporation of y | 50-60% | no RNA incorporating two y was obtained | Km ([2]; N′ = A, SD in parentheses): 86 µM; Km ([2]; N′ = C, SD in parentheses): 590 µM; Km ([2]; N′ = T, SD in parentheses): 320 µM; Km ([2]; nucleoside triphosphate N′ = y, standard deviation in parentheses): 260 µM
